The assay addresses intestinal alkaline phosphatase (Alpi), mouse. Put plainly: murine Alpi activation by analogs – biochemical, luminescence, set 2, SAR follow-up (AID 588609). Particulars: purified muIAP, CDP-Star luminescence, 30 min.

The source made the active and inactive calls.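 The calls were made as follows: active = compounds whose averaged half-maximal activating concentration falls below 100 micromolar; inactive = the rest.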

On to `CN(C)S(=O)(=O)c1cccc(NC(=S)NCCN2CCCC2)c1`, for which the EC50 is > 100 µM (inactive).
Regarding `CN(C)S(=O)(=O)c1ccc(NC(=S)NCCc2cccc(Br)c2)cc1`, the EC50 is 48.5 µM.
With `CN(C)S(=O)(=O)c1ccc(NC(=S)NC(c2ccccc2)c2ccccc2)cc1` the figure was 3.23 µM.
The same measure for `O=S(=O)(c1ccc(NC(=S)NCC(c2ccccc2)c2ccccc2)cc1)N1CCCC1`: 9.09 µM; for `CN(C)S(=O)(=O)c1cccc(NC(=S)NCCc2cccc(Br)c2)c1`: 56.9 µM.
With `CN(C)S(=O)(=O)c1cccc(NC(=S)NCCCN2CCCC2=O)c1` the figure was > 100 µM (inactive); with `CN(C)S(=O)(=O)c1cccc(NC(=S)NCCc2ccc(Br)cc2)c1`, 86 µM; with `CN(C)S(=O)(=O)c1ccc(NC(=S)NCCc2cccc(O)c2)cc1`, > 100 µM (inactive).
As for `CN(C)S(=O)(=O)c1cccc(NC(=S)NC(C)(C)CC(C)(C)C)c1`, the EC50 was 32.1 µM.
For the molecule `Cc1ccc(S(=O)(=O)N(C)C)cc1NC(=S)NC(=O)C12CC3CC(CC(C3)C1)C2`, the EC50 was > 100 µM (inactive).
`Cc1ccc(S(=O)(=O)N(C)C)cc1NC(=S)NC(C)CCCC(C)C` (stereo not given): the EC50 was 51.5 µM.
In the case of `CC1CCN(S(=O)(=O)c2ccc(NC(=S)NCCC(c3ccccc3)c3ccccc3)cc2)CC1`, the EC50 is 12.9 µM.
As for `CC1CCN(S(=O)(=O)c2ccc(NC(=S)NC(c3ccccc3)c3ccccc3)cc2)CC1`, the EC50 is 7.3 µM.
Turning to `CN(C)S(=O)(=O)c1cccc(NC(=S)NC(c2ccccc2)c2ccccc2)c1`, the concentration giving a half-maximal response (EC50) was 26 µM.
Take `CN(C)S(=O)(=O)c1cccc(NC(=S)NCC(c2ccccc2)c2ccccc2)c1`: the EC50 is 15.3 µM.
The same measure for `CN(C)CCCNC(=S)Nc1cccc(S(=O)(=O)N(C)C)c1`: > 100 µM (inactive); for `CN(CCc1ccccn1)C(=S)Nc1cccc(S(=O)(=O)N(C)C)c1`: > 100 µM (inactive); for `CCN(CC)c1ccc(C(=O)NC(=S)Nc2cc(S(=O)(=O)N3CCOCC3)ccc2-n2cncn2)cc1`: > 100 µM (inactive).
As to `Cc1ccc(C)c(NC(=S)Nc2ccc(S(=O)(=O)N3CCCCC3)cc2)c1`, the EC50 was > 100 µM (inactive).
In the case of `O=C(CCc1ccccc1)NC(=S)Nc1cccc(S(=O)(=O)N2CCCC2)c1`, the EC50 was > 100 µM (inactive).
With `CN(CCc1ccccc1)C(=S)Nc1cccc(S(=O)(=O)N(C)C)c1` the figure was > 100 µM (inactive); with `CN(C)S(=O)(=O)c1cccc(NC(=S)NCCc2ccccc2)c1`, 51.6 µM.
With `O=c1c2ccccc2[nH]c(=S)n1-c1cccc(S(=O)(=O)N2CCCC2)c1` the figure was > 100 µM (inactive); with `CCN(CC)S(=O)(=O)c1ccc(NC(=S)NCC(c2ccccc2)c2ccccc2)cc1`, 19.5 µM.
Regarding `CCN(CC)S(=O)(=O)c1ccc(NC(=S)NCCC(c2ccccc2)c2ccccc2)cc1`, the EC50 is 76.9 µM.
The same measure for `CN(C)S(=O)(=O)c1cccc(NC(=S)NCCc2cccc(O)c2)c1`: > 100 µM (inactive).
On to `CN(C)S(=O)(=O)c1ccc(NC(=S)NCC(c2ccccc2)c2ccccc2)cc1`, for which the EC50 was 13.4 µM.
The same measure for `CN(C)S(=O)(=O)c1cccc(NC(=S)NCCc2ccc(F)cc2)c1`: > 100 µM (inactive).
In the case of `O=S(=O)(c1ccc(NC(=S)NCCC(c2ccccc2)c2ccccc2)cc1)N1CCCCC1`, the EC50 is 44.5 µM.
With `CCN(CC)CCCNC(=S)Nc1cccc(S(=O)(=O)N(C)C)c1` the figure was > 100 µM (inactive); with `CN(C)S(=O)(=O)c1cccc(NC(=S)NCCC(=O)N2CCCC2)c1`, > 100 µM (inactive); with `COc1ccccc1CNC(=S)Nc1ccc(S(=O)(=O)N(C)C)cc1`, 67.1 µM.
The same measure for `COc1ccc(CCNC(=S)Nc2ccc(S(=O)(=O)N3CCCCC3)cc2)cc1OC`: 60.5 µM; for `CCN(CC)S(=O)(=O)c1ccc(NC(=S)NC(c2ccccc2)c2ccccc2)cc1`: 43.9 µM; for `O=C(NC(=S)Nc1cc(S(=O)(=O)N2CCOCC2)ccc1N1CCOCC1)c1ccco1`: > 100 µM (inactive).
With `CC1CCN(S(=O)(=O)c2ccc(NC(=S)NCC(c3ccccc3)c3ccccc3)cc2)CC1` the figure was 6.81 µM; with `COc1cccc(CNC(=S)Nc2ccc(S(=O)(=O)N(C)C)cc2)c1`, 45.1 µM.
For the molecule `COc1ccc(CCNC(=S)Nc2ccc(S(=O)(=O)N3CCCCC3)cc2)cc1`, the EC50 was 60.6 µM.
The same measure for `CCCCCCC(C)NC(=S)Nc1cc(S(=O)(=O)N(C)C)ccc1C` (stereo not given): 12.3 µM; for `CC(CCc1ccccc1)NC(=S)Nc1cccc(S(=O)(=O)N(C)C)c1` (stereo not given): 44.7 µM.
As to `CN(C)S(=O)(=O)c1cccc(NC(=S)NCCC(c2ccccc2)c2ccccc2)c1`, the EC50 was 7.44 µM.
On to `CN(C)S(=O)(=O)c1cccc(NC(=S)NCCc2cccc(F)c2)c1`, for which the concentration for a half-maximal effect (EC50) is 20.2 µM.
Turning to `CN(C)S(=O)(=O)c1ccc(NC(=S)NCCc2ccccc2)cc1`, the EC50 was > 100 µM (inactive).
Turning to `CN(C)S(=O)(=O)c1cccc(NC(=S)NCc2ccc(Cl)cc2)c1`, the EC50 was 12.2 µM.
With `Cc1ccc(CNC(=S)Nc2cccc(S(=O)(=O)N(C)C)c2)cc1`, the EC50 is 25.9 µM.
The same measure for `O=S(=O)(c1ccc(NC(=S)NC(c2ccccc2)c2ccccc2)cc1)N1CCCC1`: 12.7 µM; for `COc1ccc(CNC(=S)Nc2ccc(S(=O)(=O)N3CCCCC3)cc2)cc1OC`: 43.7 µM; for `CN(C)CC(C)(C)CNC(=S)Nc1cccc(S(=O)(=O)N(C)C)c1`: > 100 µM (inactive).
With `O=S(=O)(c1ccc(NC(=S)NCC(c2ccccc2)c2ccccc2)cc1)N1CCCCC1` the figure was 5.37 µM; with `O=C(NC(=S)Nc1cc(S(=O)(=O)N2CCOCC2)ccc1O)c1ccco1`, > 100 µM (inactive); with `Cc1ccccc1CNC(=S)Nc1ccc(S(=O)(=O)N(C)C)cc1`, 47.7 µM.
The same measure for `Cc1ccc(S(=O)(=O)N(C)C)cc1NC(=S)NC1CCN(Cc2ccccc2)CC1`: > 100 µM (inactive).
On to `CN(C)S(=O)(=O)c1ccc(NC(=S)NCCN2CCCC2)cc1`, for which the EC50 was > 100 µM (inactive).
With `O=S(=O)(c1ccc(NC(=S)NC(c2ccccc2)c2ccccc2)cc1)N1CCCCC1` the figure was 4.38 µM.
Turning to `O=S(=O)(c1ccc(NC(=S)NCCC(c2ccccc2)c2ccccc2)cc1)N1CCCC1`, the EC50 is 59.3 µM.
In the case of `O=S(=O)(c1ccc(NC(=S)NCc2cccc(Cl)c2)cc1)N1CCCCC1`, the EC50 is 36.1 µM.
With `COc1cccc(CCNC(=S)Nc2cccc(S(=O)(=O)N(C)C)c2)c1` the figure was 53.7 µM; with `Cc1ccc(CNC(=S)Nc2ccc(S(=O)(=O)N(C)C)cc2)cc1`, 73.2 µM; with `CC(CNC(=S)Nc1cccc(S(=O)(=O)N(C)C)c1)N1CCN(c2ccccc2)CC1` (stereo not given), 87.5 µM.
The same measure for `Cc1ccc(S(=O)(=O)N(C)C)cc1NC(=S)NCCCn1ccnc1`: > 100 µM (inactive).
Turning to `O=S(=O)(c1ccc(NC(=S)NCc2cccc(F)c2)cc1)N1CCCCC1`, the EC50 was 28.5 µM.
The same measure for `CN(C)S(=O)(=O)c1cccc(NC(=S)NCCCn2ccnc2)c1`: > 100 µM (inactive); for `CC1CC(NC(=S)Nc2cccc(S(=O)(=O)N(C)C)c2)CC(C)N1` (stereo not given): > 100 µM (inactive); for `CN(C)S(=O)(=O)c1ccc(NC(=S)NCCC(c2ccccc2)c2ccccc2)cc1`: 20.1 µM.
As to `Cc1ccc(S(=O)(=O)N(C)C)cc1NC(=S)NC(C)CCC(C)C` (stereo not given), the EC50 was 42.7 µM.

By EC50 is commonly meant the concentration that produces a half-maximal response.
